In patent US12396948B2, “Pharmaceutical compositions for the treatment of ophthalmic conditions” (Rhodes Technologies, priority 2017, dated 2025):

Key:
[1] = Chemical analysis of AE10C Trial #1 in-process samples and finished product (Example 36); assay type: physicochemical; conditions: Dronabinol AE10C Formulation, Trial #1 samples
[2] = Forced degradation of API, drug product emulsion and placebo (Examples 30 and 32); assay type: physicochemical
Protocol: In this example, a forced degradation study was performed on the API, drug product emulsion, and a placebo. Only w/w % impurities are presented.
In this example, an additional forced degradation study was performed. Harsh conditions for oxidation (H2O2 concentration increased from 1% to 3%, exposure increased from 30 min to 2 hr) and conditions for photolytic degradation (exposure decreased from 24 hr to 40 min) were used in an additional forced degradation study.

[3] = Oxidation 1% H2O2 0.5 hr, 1st study
[4] = Oxidation 3% H2O2 2 hr, 2nd study

## CCCCCc1cc(O)c2c(c1)OC(C)(C)[C@@H]1CCC(C)=C[C@@H]21 [API]
[1]
  Assay % LC: 87.2 % LC
  Impurity (% Area) CBD: 0.62 % Area
  Impurity (% Area) RRT 0.46: 0.19 % Area
  Impurity (% Area) RRT 0.70: 0.52 % Area
  Impurity (% Area) Total: 1.3 % Area
  Impurity (% w/w) CBN: 0.55 % w/w
  Impurity (% w/w) RRT 0.46: 0.17 % w/w
  Impurity (% w/w) RRT 0.93: 0.46 % w/w
  Impurity (% w/w) Total: 1.2 % w/w
[2]; Acid 24 hr, 1st study
  % Area: 96.0 % Area
  % w/w Impurities CBN: 1.54 % w/w
  % w/w Impurities RRT 0.30: 0.08 % w/w
  % w/w Impurities RRT 0.40: 0.71 % w/w
  % w/w Impurities RRT 0.46: 0.22 % w/w
  % w/w Impurities RRT 0.49: 0.37 % w/w
  % w/w Impurities RRT 0.56: 0.18 % w/w
  % w/w Impurities RRT 0.62: 0.37 % w/w
  % w/w Impurities Total: 3.5 % w/w
  Assay % LC: 83.6 % LC
[2]; Base 24 hr, 1st study
  % Area: 95.3 % Area
  % w/w Impurities CBN: 1.19 % w/w
  % w/w Impurities RRT 0.30: 0.13 % w/w
  % w/w Impurities RRT 0.40: 1.72 % w/w
  % w/w Impurities RRT 0.46: 0.30 % w/w
  % w/w Impurities RRT 0.56: 0.42 % w/w
  % w/w Impurities RRT 0.62: 0.31 % w/w
  % w/w Impurities Total: 4.1 % w/w
  Assay % LC: 82.9 % LC
[2]; Control, 1st study
  % Area: 97.5 % Area
  % w/w Impurities CBD: 0.52 % w/w
  % w/w Impurities CBN: 1.41 % w/w
  % w/w Impurities RRT 0.46: 0.28 % w/w
  % w/w Impurities Total: 2.2 % w/w
  Assay % LC: 85.8 % LC
[2]; Control, 2nd study
  % Area: 97.4 % Area
  % w/w Impurities CBD: 0.58 % w/w
  % w/w Impurities CBN: 1.41 % w/w
  % w/w Impurities RRT 0.46: 0.26 % w/w
  % w/w Impurities Total: 2.3 % w/w
  Assay % LC: 85.8 % LC
[2]; [3]
  % Area: 97.5 % Area
  % w/w Impurities CBN: 1.27 % w/w
  % w/w Impurities RRT 0.46: 0.25 % w/w
  % w/w Impurities RRT 0.62: 0.49 % w/w
  % w/w Impurities Total: 2.0 % w/w
  Assay % LC: 78.6 % LC
[2]; [4]
  % Area: 97.0 % Area
  % w/w Impurities CBD: 0.62 % w/w
  % w/w Impurities CBN: 0.79 % w/w
  % w/w Impurities RRT 0.46: 0.29 % w/w
  % w/w Impurities RRT 0.56: 0.20 % w/w
  % w/w Impurities RRT 0.93: 0.65 % w/w
  % w/w Impurities Total: 2.6 % w/w
  Assay % LC: 83.7 % LC
[2]; Photolytic 40 min, 2nd study
  % Area: 79.1 % Area
  % w/w Impurities CBD: 8.20 % w/w
  % w/w Impurities CBN: 1.00 % w/w
  % w/w Impurities RRT 0.30: 0.07 % w/w
  % w/w Impurities RRT 0.44: 0.68 % w/w
  % w/w Impurities RRT 0.46: 1.35 % w/w
  % w/w Impurities RRT 0.52: 1.56 % w/w
  % w/w Impurities RRT 0.56: 0.17 % w/w
  % w/w Impurities RRT 0.70: 0.62 % w/w
  % w/w Impurities RRT 0.82: 0.22 % w/w
  % w/w Impurities RRT 1.35: 0.21 % w/w
  % w/w Impurities RRT 1.40: 0.21 % w/w
  % w/w Impurities RRT 1.45: 0.52 % w/w
  % w/w Impurities RRT 1.48: 0.40 % w/w
  % w/w Impurities Total: 15.2 % w/w
  Assay % LC: 57.5 % LC
[2]; Photolytic 24 hr, 1st study
  % Area: 11.3 % Area
  % w/w Impurities CBN: 6.75 % w/w
  % w/w Impurities RRT 0.39: 0.79 % w/w
  % w/w Impurities RRT 0.40: 0.66 % w/w
  % w/w Impurities RRT 0.46: 4.05 % w/w
